{"source": "the supplement of paper PMC8882468"}
{"tested_on": "HCI-019 (organoid from a triple-negative breast cancer xenograft)", "assay": "CTG-3D luminescence at 96 h relative to day-0 seeding control (ratio to day 0); higher = more growth / less cytotoxicity; PDxO 3D drug screen, 96 h, CTG-3D normalised to day-0 seeding control.", "settings": "625 fM; days in culture: 110"}
{"smiles": "CC(C)(C(=O)NCC(F)(F)C(F)(F)F)C(=O)N[C@@H]1C(=O)Nc2ccccc2-c2ccccc21", "CTG-3D luminescence at 96 h": 1.84}
{"smiles": "C[C@@H]1COCCN1c1cc(C2([S@](C)(=N)=O)CC2)nc(-c2cc[nH]c3nccc2-3)n1", "note": "[ceralasertib]", "CTG-3D luminescence at 96 h": 1.62}
{"smiles": "CCN1CCN(Cc2ccc(Nc3ncc(F)c(-c4cc(F)c5nc(C)n(C(C)C)c5c4)n3)nc2)CC1", "note": "[abemaciclib]", "CTG-3D luminescence at 96 h": 2.64}
{"tested_on": "HCI-019", "assay": "CTG-3D luminescence at 96 h relative to day-0 seeding control (ratio to day 0); higher = more growth / less cytotoxicity; PDxO 3D drug screen, 96 h, CTG-3D normalised to day-0 seeding control.", "settings": "625 fM; days in culture: 131"}
{"smiles": "COc1cccc2c1C(=O)c1c(O)c3c(c(O)c1C2=O)C[C@@](O)(C(=O)CO)C[C@@H]3O[C@H]1C[C@H](N)[C@H](O)[C@H](C)O1", "note": "[doxorubicin]", "CTG-3D luminescence at 96 h": 4.1}
{"smiles": "O=C(O)C1(C(=O)O)CCC1.[NH2-].[NH2-].[Pt+2]", "note": "[carboplatin]", "CTG-3D luminescence at 96 h": 3.26}
{"smiles": "NC(=O)Nc1cc(-c2cccc(F)c2)sc1C(=O)N[C@H]1CCCNC1", "note": "[AZD7762]", "CTG-3D luminescence at 96 h": 4.04}
{"smiles": "Nc1ccn([C@@H]2O[C@H](CO)[C@@H](O)C2(F)F)c(=O)n1", "note": "[gemcitabine]", "CTG-3D luminescence at 96 h": 3.6}
{"smiles": "CC1(C)CCC(c2ccc(Cl)cc2)=C(CN2CCN(c3ccc(C(=O)NS(=O)(=O)c4ccc(N[C@H](CCN5CCOCC5)CSc5ccccc5)c(S(=O)(=O)C(F)(F)F)c4)cc3)CC2)C1", "note": "[navitoclax]", "CTG-3D luminescence at 96 h": 3.96}
{"smiles": "CN(Cc1cnc2nc(N)nc(N)c2n1)c1ccc(C(=O)N[C@@H](CCC(=O)O)C(=O)O)cc1", "note": "[methotrexate]", "CTG-3D luminescence at 96 h": 3.85}
{"smiles": "C=CCn1c(=O)c2cnc(Nc3ccc(N4CCN(C)CC4)cc3)nc2n1-c1cccc(C(C)(C)O)n1", "note": "[adavosertib]", "CTG-3D luminescence at 96 h": 3.56}
{"smiles": "CC(C)(C(=O)NCC(F)(F)C(F)(F)F)C(=O)N[C@@H]1C(=O)Nc2ccccc2-c2ccccc21", "CTG-3D luminescence at 96 h": 4.34}
{"smiles": "C[C@@H]1COCCN1c1cc(C2([S@](C)(=N)=O)CC2)nc(-c2cc[nH]c3nccc2-3)n1", "note": "[ceralasertib]", "CTG-3D luminescence at 96 h": 3.75}
{"smiles": "CCN1CCN(Cc2ccc(Nc3ncc(F)c(-c4cc(F)c5nc(C)n(C(C)C)c5c4)n3)nc2)CC1", "note": "[abemaciclib]", "CTG-3D luminescence at 96 h": 2.87}
{"tested_on": "HCI-019", "assay": "CTG-3D luminescence at 96 h relative to day-0 seeding control (ratio to day 0); higher = more growth / less cytotoxicity; PDxO 3D drug screen, 96 h, CTG-3D normalised to day-0 seeding control.", "settings": "625 fM; days in culture: 152"}
{"smiles": "COc1cccc2c1C(=O)c1c(O)c3c(c(O)c1C2=O)C[C@@](O)(C(=O)CO)C[C@@H]3O[C@H]1C[C@H](N)[C@H](O)[C@H](C)O1", "note": "[doxorubicin]", "CTG-3D luminescence at 96 h": 2.03}
{"smiles": "O=C(O)C1(C(=O)O)CCC1.[NH2-].[NH2-].[Pt+2]", "note": "[carboplatin]", "CTG-3D luminescence at 96 h": 1.64}
{"smiles": "NC(=O)Nc1cc(-c2cccc(F)c2)sc1C(=O)N[C@H]1CCCNC1", "note": "[AZD7762]", "CTG-3D luminescence at 96 h": 3.06}
{"smiles": "Nc1ccn([C@@H]2O[C@H](CO)[C@@H](O)C2(F)F)c(=O)n1", "note": "[gemcitabine]", "CTG-3D luminescence at 96 h": 2.77}
{"smiles": "CC1(C)CCC(c2ccc(Cl)cc2)=C(CN2CCN(c3ccc(C(=O)NS(=O)(=O)c4ccc(N[C@H](CCN5CCOCC5)CSc5ccccc5)c(S(=O)(=O)C(F)(F)F)c4)cc3)CC2)C1", "note": "[navitoclax]", "CTG-3D luminescence at 96 h": 2.39}
{"smiles": "CN(Cc1cnc2nc(N)nc(N)c2n1)c1ccc(C(=O)N[C@@H](CCC(=O)O)C(=O)O)cc1", "note": "[methotrexate]", "CTG-3D luminescence at 96 h": 2.17}
{"smiles": "C=CCn1c(=O)c2cnc(Nc3ccc(N4CCN(C)CC4)cc3)nc2n1-c1cccc(C(C)(C)O)n1", "note": "[adavosertib]", "CTG-3D luminescence at 96 h": 2.53}
{"smiles": "CC(C)(C(=O)NCC(F)(F)C(F)(F)F)C(=O)N[C@@H]1C(=O)Nc2ccccc2-c2ccccc21", "CTG-3D luminescence at 96 h": 1.98}
{"smiles": "C[C@@H]1COCCN1c1cc(C2([S@](C)(=N)=O)CC2)nc(-c2cc[nH]c3nccc2-3)n1", "note": "[ceralasertib]", "CTG-3D luminescence at 96 h": 2.45}
{"smiles": "CCN1CCN(Cc2ccc(Nc3ncc(F)c(-c4cc(F)c5nc(C)n(C(C)C)c5c4)n3)nc2)CC1", "note": "[abemaciclib]", "CTG-3D luminescence at 96 h": 2.48}
{"tested_on": "HCI-024 (organoid from a breast cancer xenograft)", "assay": "CTG-3D luminescence at 96 h relative to day-0 seeding control (ratio to day 0); higher = more growth / less cytotoxicity; PDxO 3D drug screen, 96 h, CTG-3D normalised to day-0 seeding control.", "settings": "12.5 pM; days in culture: 105"}
{"smiles": "COc1cccc2c1C(=O)c1c(O)c3c(c(O)c1C2=O)C[C@@](O)(C(=O)CO)C[C@@H]3O[C@H]1C[C@H](N)[C@H](O)[C@H](C)O1", "note": "[doxorubicin]", "CTG-3D luminescence at 96 h": 1.87}
{"smiles": "O=C(O)C1(C(=O)O)CCC1.[NH2-].[NH2-].[Pt+2]", "note": "[carboplatin]", "CTG-3D luminescence at 96 h": 1.38}
{"smiles": "NC(=O)Nc1cc(-c2cccc(F)c2)sc1C(=O)N[C@H]1CCCNC1", "note": "[AZD7762]", "CTG-3D luminescence at 96 h": 1.28}
{"smiles": "Nc1ccn([C@@H]2O[C@H](CO)[C@@H](O)C2(F)F)c(=O)n1", "note": "[gemcitabine]", "CTG-3D luminescence at 96 h": 1.5}
{"smiles": "CC1(C)CCC(c2ccc(Cl)cc2)=C(CN2CCN(c3ccc(C(=O)NS(=O)(=O)c4ccc(N[C@H](CCN5CCOCC5)CSc5ccccc5)c(S(=O)(=O)C(F)(F)F)c4)cc3)CC2)C1", "note": "[navitoclax]", "CTG-3D luminescence at 96 h": 1.44}
{"smiles": "CN(Cc1cnc2nc(N)nc(N)c2n1)c1ccc(C(=O)N[C@@H](CCC(=O)O)C(=O)O)cc1", "note": "[methotrexate]", "CTG-3D luminescence at 96 h": 1.92}
{"smiles": "C=CCn1c(=O)c2cnc(Nc3ccc(N4CCN(C)CC4)cc3)nc2n1-c1cccc(C(C)(C)O)n1", "note": "[adavosertib]", "CTG-3D luminescence at 96 h": 1.61}
{"smiles": "CC(C)(C(=O)NCC(F)(F)C(F)(F)F)C(=O)N[C@@H]1C(=O)Nc2ccccc2-c2ccccc21", "CTG-3D luminescence at 96 h": 1.79}
{"smiles": "C[C@@H]1COCCN1c1cc(C2([S@](C)(=N)=O)CC2)nc(-c2cc[nH]c3nccc2-3)n1", "note": "[ceralasertib]", "CTG-3D luminescence at 96 h": 1.68}
{"smiles": "CCN1CCN(Cc2ccc(Nc3ncc(F)c(-c4cc(F)c5nc(C)n(C(C)C)c5c4)n3)nc2)CC1", "note": "[abemaciclib]", "CTG-3D luminescence at 96 h": 1.51}
{"tested_on": "HCI-024", "assay": "CTG-3D luminescence at 96 h relative to day-0 seeding control (ratio to day 0); higher = more growth / less cytotoxicity; PDxO 3D drug screen, 96 h, CTG-3D normalised to day-0 seeding control.", "settings": "12.5 pM; days in culture: 122"}
{"smiles": "COc1cccc2c1C(=O)c1c(O)c3c(c(O)c1C2=O)C[C@@](O)(C(=O)CO)C[C@@H]3O[C@H]1C[C@H](N)[C@H](O)[C@H](C)O1", "note": "[doxorubicin]", "CTG-3D luminescence at 96 h": 2.06}
{"smiles": "O=C(O)C1(C(=O)O)CCC1.[NH2-].[NH2-].[Pt+2]", "note": "[carboplatin]", "CTG-3D luminescence at 96 h": 1.94}
{"smiles": "NC(=O)Nc1cc(-c2cccc(F)c2)sc1C(=O)N[C@H]1CCCNC1", "note": "[AZD7762]", "CTG-3D luminescence at 96 h": 1.65}
{"smiles": "Nc1ccn([C@@H]2O[C@H](CO)[C@@H](O)C2(F)F)c(=O)n1", "note": "[gemcitabine]", "CTG-3D luminescence at 96 h": 2.2}
{"smiles": "CC1(C)CCC(c2ccc(Cl)cc2)=C(CN2CCN(c3ccc(C(=O)NS(=O)(=O)c4ccc(N[C@H](CCN5CCOCC5)CSc5ccccc5)c(S(=O)(=O)C(F)(F)F)c4)cc3)CC2)C1", "note": "[navitoclax]", "CTG-3D luminescence at 96 h": 1.5}
